Key:
[1] = system: sunburns; assay: Example 4: UVB sunburn study in 34 volunteers, test compounds applied before or after 1 or 3 MEDs of UVB; assay type: in vivo, human; conditions: for prevention of the development of sunburns: applied daily for 3 days before 1 or 3 MEDs of UVB; for treatment of the induced sunburns, review of the data of the left side: left side of the back
Procedure: In a study conducted by a practicing dermatologist, after informed consent, 34 volunteers were treated in the following manner. On the left side of the back, one inch squares were marked and treated daily for 3 days with 12 test compounds including a control of vehicle and a commercial identified sunscreen. After determining the MED (minimal erythema dose) for each subject, each subject was treated with one or 3 MEDs of UVB on both sides of the back. On the right side, 18 test compounds were applied including a vehicle control post sunburn at 0 hours, 8 hours, 24 and 48 hours. Measurements of the severity of the burns were recorded as the end point at 8, 24 and 48 hours.

[2] = system: sunburns; conditions: cited from earlier work; for SPF equivalent: topical application, background section, no trial described
[3] = system: sunburns; assay: ability to prevent sunburns (SPF equivalent) after topical application; assay type: in vivo, human
Source text: Each of the three vitamins A, C and E, and complexes thereof, when topically applied individually at therapeutic levels, markedly increases the ability of the skin to absorb free radicals. Each vitamin molecule, as a measurement of this effect, adds the ability to absorb 2 MEDs (minimal erythema dose) of energy or a total of 6 MEDS if all three vitamins are present simultaneously. […] SPF (Sun Protection Factor) is a recognized measure of ultraviolet screen ability. Simultaneous application of a tri-vitamin regimen of vitamins A, C and E can result in an SPF equivalent of 24. Use of the three vitamins together in effective amounts results in enhanced protection of the skin against sunburn and, unlike sunscreens per se, persists in effect until the molecules are consumed by the body. […] The enhancement of photo protection by the tri-vitamin therapy according to the invention is particularly important as a solar spectrum (UVA, UVB) sun protectant. The effects of simultaneous use of the tri-vitamin regime and sunscreens are additive.
One measure of the activity has been to assess the ability to prevent sunburns.

[4] = system: photo aging; assay: open label proof of concept trials over 5 years in 300 patients, reversal of photo aging; assay type: in vivo, human
Source text: Animal models have an inherent limitation and are not necessarily directly applicable to humans. For example, various mammalian species have different metabolic characteristics. In particularly, most animals have the capacity to manufacture their own vitamin C.
Indeed, the studies appear to indicate a synergetic effect between vitamins C and E in the morning, and vitamins A and E in the evening.

[5] = system: photo ageing; assay: Example 2: side effects in patients treated for photo ageing, topical tretinoin versus formulations of the invention; assay type: in vivo, human
Source text: In a trial conducted by a practicing dermatologist, involving 267 patients undergoing treatment for photo ageing using slowly increasing strengths of topical tretinoin, side effects were frequent and prolonged. An average of 3.7 reactions sufficiently severe to cause discontinuation of therapy were experienced and each reaction required discontinuation of treatment for an average of 7.7 days. Only 14% of patients were able to be treated without side effects at the commercially available strength of 0.1% tretinoin. […] The side effects were mild and were ameliorated by re-introducing the regime as alternate day treatment in the areas of irritation. Only 1.5% of patients were unable to tolerate the regime.

| Structure (SMILES) | prevention of the development of sunburns [1] | treatment of the induced sunburns, review of the data of the left side [1] | effect on sunburn [3] | SPF equivalent [2] | further results |
| --- | --- | --- | --- | --- | --- |
| O=C1O[C@H]([C@@H](O)CO)C(O)=C1O [vitamin C, L-ascorbic acid] | able to prevent the development of sunburns | significant visible improvement | effective in reducing sunburns | – | persistence of photoprotection ([2]; following a single application): at least 4 days |
| CCCCCCCCCCCCCCCC(=O)OC/C=C(C)/C=C/C=C(C)/C=C/C1=C(C)CCCC1(C)C [vitamin A palmitate, retinyl palmitate] | – | – | – | 20 | frequency of irritation ([4]; compared with topical tretinoin): markedly reduced frequency of irritation |
| CC1=C(/C=C/C(C)=C/C=C/C(C)=C/CO)C(C)(C)CCC1 [retinol] | – | – | – | 20 | – |
| Cc1c(C)c2c(c(C)c1O)CC[C@@](C)(CCC[C@H](C)CCC[C@H](C)CCCC(C)C)O2 [vitamin E, α-tocopherol] | able to prevent the development of sunburns | significant visible improvement | significantly ameliorated the signs and symptoms of sunburn | – | treatment of sunburns ([1]; applied post sunburn): statistically visible significant treatment benefit; clinical effect on photo aging ([4]; topical): enhance reversal of photo aging |
| CC1=C(/C=C/C(C)=C/C=C/C(C)=C/C(=O)O)C(C)(C)CCC1 [tretinoin, all-trans retinoic acid] | – | – | – | – | average discontinuation of treatment per reaction ([5]; 267 patients): 7.7 days; average reactions sufficiently severe to cause discontinuation of therapy ([5]; 267 patients, slowly increasing strengths): 3.7; patients able to be treated without side effects ([5]; at commercially available strength of 0.1%): 14% |

From patent US20080057138A1, “RESTORATIVE SKIN CREAM” (Telford Holdings Ltd., priority 2006, published 2008)
